Data taken from paper PMC9851200, “Multiparameter phenotypic screening for endogenous TFEB and TFE3 translocation identifies novel chemical series modulating lysosome function” (Autophagy, 2022).

Assays:
Type in all cases: binding
[1] = biological target: kinases (KINOMEscan panel) (Homo sapiens, UniProt P49761); details: CLK3; NEW KINOMEscan
[2] = biological target: kinases (KINOMEscan panel) (Homo sapiens, UniProt P21802); details: kinase FGFR2; NEW KINOMEscan
[3] = biological target: T1, kinases (KINOMEscan panel) (Homo sapiens, UniProt Q9NRM7); details: NEW KINOMEscan
T1 sequence (Q9NRM7 1-1088): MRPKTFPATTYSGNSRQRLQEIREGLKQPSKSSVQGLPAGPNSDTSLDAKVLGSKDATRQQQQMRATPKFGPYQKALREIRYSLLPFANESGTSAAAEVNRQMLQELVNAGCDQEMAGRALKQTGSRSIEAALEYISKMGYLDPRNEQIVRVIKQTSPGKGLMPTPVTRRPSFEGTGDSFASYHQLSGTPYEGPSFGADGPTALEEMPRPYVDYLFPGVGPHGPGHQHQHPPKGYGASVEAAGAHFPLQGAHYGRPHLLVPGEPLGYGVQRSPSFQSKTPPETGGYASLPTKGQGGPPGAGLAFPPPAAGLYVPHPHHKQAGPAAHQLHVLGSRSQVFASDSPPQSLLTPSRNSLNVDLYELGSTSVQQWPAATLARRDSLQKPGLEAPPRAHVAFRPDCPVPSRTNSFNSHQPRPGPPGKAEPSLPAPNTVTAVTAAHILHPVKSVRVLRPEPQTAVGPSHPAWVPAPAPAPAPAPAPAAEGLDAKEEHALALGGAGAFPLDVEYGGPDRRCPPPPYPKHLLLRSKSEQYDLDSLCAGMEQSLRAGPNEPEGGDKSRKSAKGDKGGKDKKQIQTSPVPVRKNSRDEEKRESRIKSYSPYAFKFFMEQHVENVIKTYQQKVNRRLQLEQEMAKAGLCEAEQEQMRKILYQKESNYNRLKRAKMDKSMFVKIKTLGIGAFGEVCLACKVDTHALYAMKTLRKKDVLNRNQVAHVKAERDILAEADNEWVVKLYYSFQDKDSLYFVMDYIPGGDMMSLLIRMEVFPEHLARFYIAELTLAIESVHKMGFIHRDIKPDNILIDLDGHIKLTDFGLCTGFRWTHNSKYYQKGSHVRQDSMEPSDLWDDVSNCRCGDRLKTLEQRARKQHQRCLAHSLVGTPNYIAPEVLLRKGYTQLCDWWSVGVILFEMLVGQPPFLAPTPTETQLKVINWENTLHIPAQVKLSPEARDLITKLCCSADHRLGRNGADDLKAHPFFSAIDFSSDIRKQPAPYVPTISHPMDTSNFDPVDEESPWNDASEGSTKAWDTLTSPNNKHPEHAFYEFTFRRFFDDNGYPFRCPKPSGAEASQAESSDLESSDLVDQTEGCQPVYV

[4] = biological target: kinases (KINOMEscan panel) (Homo sapiens, UniProt P42336, H1047Y); details: kinase PIK3CA(H1047Y); NEW KINOMEscan
[5] = biological target: kinases (KINOMEscan panel) (Homo sapiens, UniProt P42336); details: kinase PIK3CA; NEW KINOMEscan
[6] = biological target: T2, kinases (KINOMEscan panel) (Homo sapiens, UniProt Q99759); details: MAP3K3; NEW KINOMEscan
T2 sequence (Q99759 1-626): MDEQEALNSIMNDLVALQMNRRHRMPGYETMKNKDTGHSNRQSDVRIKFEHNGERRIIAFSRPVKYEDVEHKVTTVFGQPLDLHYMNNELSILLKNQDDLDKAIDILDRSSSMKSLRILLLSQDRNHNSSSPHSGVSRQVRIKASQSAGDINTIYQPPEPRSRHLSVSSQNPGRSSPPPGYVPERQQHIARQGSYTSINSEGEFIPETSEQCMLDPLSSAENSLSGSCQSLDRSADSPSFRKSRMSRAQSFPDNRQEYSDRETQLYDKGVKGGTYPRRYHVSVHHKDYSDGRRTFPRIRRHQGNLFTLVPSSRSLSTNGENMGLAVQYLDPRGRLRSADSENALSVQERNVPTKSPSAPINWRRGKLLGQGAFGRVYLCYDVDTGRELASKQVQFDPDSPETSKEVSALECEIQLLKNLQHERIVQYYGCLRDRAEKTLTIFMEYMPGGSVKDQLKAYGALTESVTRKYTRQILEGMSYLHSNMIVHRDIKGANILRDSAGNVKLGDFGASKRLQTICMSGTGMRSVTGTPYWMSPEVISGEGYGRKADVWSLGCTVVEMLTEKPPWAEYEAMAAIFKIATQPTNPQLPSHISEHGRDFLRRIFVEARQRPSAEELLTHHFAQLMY

[7] = biological target: kinases (KINOMEscan panel) (Homo sapiens, UniProt Q9Y463); details: kinase DYRK1B; NEW KINOMEscan
[8] = biological target: kinases (KINOMEscan panel) (Homo sapiens, UniProt P29376); details: LTK; NEW KINOMEscan
[9] = biological target: kinases (KINOMEscan panel) (Homo sapiens, UniProt Q9H3Y6); details: NEW KINOMEscan
kinases (KINOMEscan panel) (Homo sapiens, UniProt Q9H3Y6), sequence (Q9H3Y6 whole entry): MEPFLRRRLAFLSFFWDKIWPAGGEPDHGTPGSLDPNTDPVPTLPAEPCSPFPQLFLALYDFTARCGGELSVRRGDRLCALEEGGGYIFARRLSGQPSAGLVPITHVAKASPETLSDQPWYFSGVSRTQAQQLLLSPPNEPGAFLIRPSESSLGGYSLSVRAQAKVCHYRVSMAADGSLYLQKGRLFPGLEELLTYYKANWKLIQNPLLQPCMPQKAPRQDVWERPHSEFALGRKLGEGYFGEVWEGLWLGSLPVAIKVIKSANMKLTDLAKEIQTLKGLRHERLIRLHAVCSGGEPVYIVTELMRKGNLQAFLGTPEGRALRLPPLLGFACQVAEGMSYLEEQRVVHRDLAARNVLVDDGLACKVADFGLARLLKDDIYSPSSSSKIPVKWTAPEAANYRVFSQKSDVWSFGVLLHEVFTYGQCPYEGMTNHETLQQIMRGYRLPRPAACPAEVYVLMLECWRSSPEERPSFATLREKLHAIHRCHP

kinases (KINOMEscan panel) (Homo sapiens, UniProt P29376), sequence (P29376 17-864): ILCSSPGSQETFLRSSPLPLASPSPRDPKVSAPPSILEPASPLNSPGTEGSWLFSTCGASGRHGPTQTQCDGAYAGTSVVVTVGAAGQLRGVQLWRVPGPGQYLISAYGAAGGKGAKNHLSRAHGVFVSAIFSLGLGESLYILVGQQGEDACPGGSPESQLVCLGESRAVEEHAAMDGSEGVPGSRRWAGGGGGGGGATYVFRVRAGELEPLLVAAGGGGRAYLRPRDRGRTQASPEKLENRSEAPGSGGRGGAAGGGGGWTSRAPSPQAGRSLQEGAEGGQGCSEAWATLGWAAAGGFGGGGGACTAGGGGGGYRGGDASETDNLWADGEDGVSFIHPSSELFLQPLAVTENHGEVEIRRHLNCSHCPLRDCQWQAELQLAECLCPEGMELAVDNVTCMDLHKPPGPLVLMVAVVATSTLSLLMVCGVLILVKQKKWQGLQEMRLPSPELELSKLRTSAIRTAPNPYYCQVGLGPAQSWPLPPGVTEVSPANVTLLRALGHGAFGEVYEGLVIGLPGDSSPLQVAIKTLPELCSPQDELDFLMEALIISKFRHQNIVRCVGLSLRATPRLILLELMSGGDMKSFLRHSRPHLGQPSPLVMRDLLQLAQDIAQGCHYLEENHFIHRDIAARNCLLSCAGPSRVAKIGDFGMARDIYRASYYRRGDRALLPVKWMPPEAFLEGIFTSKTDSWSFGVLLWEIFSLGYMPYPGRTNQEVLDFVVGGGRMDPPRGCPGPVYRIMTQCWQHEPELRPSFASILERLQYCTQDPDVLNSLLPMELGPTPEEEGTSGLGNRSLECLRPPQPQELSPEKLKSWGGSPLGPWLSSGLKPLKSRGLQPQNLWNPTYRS
kinases (KINOMEscan panel) (Homo sapiens, UniProt P42336), sequence (P42336 whole entry): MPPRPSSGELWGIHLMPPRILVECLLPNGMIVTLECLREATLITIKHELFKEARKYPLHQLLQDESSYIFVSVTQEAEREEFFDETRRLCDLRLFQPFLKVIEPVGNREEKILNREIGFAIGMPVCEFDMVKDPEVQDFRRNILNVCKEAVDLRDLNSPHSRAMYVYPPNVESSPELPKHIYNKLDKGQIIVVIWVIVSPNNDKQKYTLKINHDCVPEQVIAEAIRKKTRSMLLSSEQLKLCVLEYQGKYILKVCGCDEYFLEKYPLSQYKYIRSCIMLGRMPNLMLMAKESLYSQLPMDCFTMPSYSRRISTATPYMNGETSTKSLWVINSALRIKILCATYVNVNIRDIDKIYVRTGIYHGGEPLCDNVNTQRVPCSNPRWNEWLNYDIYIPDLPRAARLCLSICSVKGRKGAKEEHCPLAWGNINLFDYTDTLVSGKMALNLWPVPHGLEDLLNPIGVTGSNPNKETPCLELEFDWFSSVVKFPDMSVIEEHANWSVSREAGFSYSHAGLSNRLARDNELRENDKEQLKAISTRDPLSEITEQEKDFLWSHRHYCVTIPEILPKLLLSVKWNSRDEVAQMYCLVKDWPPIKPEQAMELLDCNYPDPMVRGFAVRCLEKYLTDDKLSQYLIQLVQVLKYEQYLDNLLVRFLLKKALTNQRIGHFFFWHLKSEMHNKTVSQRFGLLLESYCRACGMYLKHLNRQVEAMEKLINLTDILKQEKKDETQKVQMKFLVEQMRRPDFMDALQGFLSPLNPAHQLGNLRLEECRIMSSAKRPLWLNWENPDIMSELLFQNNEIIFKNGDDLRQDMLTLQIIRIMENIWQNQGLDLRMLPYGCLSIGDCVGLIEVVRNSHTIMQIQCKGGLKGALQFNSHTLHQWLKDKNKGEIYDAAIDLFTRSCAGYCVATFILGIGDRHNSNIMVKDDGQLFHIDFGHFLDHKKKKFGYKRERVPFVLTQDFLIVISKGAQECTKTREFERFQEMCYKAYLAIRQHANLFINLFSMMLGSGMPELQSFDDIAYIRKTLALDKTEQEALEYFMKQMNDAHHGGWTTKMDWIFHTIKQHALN
kinases (KINOMEscan panel) (Homo sapiens, UniProt P21802), sequence (P21802 22-821): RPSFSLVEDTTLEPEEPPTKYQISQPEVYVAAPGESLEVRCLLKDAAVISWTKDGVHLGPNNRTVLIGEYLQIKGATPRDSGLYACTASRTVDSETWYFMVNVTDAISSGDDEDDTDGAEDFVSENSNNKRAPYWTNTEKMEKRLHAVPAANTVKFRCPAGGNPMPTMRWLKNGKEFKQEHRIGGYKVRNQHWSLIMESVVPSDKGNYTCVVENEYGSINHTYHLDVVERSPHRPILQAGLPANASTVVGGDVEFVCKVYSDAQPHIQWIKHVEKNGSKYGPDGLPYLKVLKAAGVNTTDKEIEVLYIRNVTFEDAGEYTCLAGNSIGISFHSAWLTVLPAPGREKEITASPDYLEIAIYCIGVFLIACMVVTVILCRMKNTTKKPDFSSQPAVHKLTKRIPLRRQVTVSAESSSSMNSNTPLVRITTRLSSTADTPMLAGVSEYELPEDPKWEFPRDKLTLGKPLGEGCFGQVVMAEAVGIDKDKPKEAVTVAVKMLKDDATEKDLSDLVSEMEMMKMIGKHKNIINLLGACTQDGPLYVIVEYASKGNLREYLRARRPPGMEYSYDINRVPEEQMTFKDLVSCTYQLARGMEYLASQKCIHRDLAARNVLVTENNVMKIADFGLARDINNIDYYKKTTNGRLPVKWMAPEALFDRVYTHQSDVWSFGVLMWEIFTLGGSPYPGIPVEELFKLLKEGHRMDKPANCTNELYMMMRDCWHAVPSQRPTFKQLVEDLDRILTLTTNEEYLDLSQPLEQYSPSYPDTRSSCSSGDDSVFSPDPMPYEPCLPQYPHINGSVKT
kinases (KINOMEscan panel) (Homo sapiens, UniProt Q9Y463), sequence (Q9Y463 whole entry): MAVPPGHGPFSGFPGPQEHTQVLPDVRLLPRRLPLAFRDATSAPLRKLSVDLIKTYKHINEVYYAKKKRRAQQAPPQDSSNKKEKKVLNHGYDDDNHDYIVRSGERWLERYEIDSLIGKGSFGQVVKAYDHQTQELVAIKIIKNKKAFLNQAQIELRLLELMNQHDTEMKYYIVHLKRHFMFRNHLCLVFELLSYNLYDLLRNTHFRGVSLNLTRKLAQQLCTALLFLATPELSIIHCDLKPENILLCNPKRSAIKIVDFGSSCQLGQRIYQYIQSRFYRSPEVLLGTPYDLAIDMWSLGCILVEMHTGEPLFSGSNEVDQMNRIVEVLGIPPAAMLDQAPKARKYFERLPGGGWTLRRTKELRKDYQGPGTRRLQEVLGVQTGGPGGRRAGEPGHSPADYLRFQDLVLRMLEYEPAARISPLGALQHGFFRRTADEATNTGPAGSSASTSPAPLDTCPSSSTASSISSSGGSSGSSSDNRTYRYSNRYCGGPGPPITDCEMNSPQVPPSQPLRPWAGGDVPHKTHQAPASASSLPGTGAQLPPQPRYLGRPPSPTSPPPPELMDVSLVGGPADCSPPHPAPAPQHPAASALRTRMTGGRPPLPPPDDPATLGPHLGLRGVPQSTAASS
kinases (KINOMEscan panel) (Homo sapiens, UniProt P49761), sequence (P49761 whole entry): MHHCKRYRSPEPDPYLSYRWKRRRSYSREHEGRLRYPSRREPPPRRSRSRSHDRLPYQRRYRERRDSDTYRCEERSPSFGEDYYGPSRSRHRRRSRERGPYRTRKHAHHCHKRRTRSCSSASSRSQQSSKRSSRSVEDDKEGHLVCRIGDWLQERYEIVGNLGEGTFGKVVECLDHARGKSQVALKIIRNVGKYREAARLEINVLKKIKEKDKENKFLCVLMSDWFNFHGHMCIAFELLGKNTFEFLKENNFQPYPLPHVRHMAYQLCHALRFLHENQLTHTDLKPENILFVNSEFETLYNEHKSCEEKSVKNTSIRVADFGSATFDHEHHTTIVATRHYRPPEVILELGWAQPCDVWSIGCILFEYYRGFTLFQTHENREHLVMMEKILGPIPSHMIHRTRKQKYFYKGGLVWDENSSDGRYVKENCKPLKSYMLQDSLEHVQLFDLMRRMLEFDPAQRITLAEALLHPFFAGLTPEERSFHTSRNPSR
kinases (KINOMEscan panel) (Homo sapiens, UniProt P42336, H1047Y), sequence (P42336 whole entry H1047Y): as the sequence (P42336 whole entry) above, with H1047Y counted along it

SMILES	KINOMEscan CLK3 [1]	KINOMEscan FGFR2 [2]	KINOMEscan LATS2 [3]	KINOMEscan PIK3CA(H1047Y) [4]	KINOMEscan PIK3CA [5]	KINOMEscan MAP3K3 [6]	KINOMEscan DYRK1B [7]	KINOMEscan LTK [8]	KINOMEscan SRMS [9]
Cc1cccc(-c2nc(N(C)c3ccc4ncsc4c3)c3ccccc3n2)n1 [NK-161]	4	9	26	4	0	0	16	14	26
Cc1cccc(-c2nc(Nc3ccc4nn(C)cc4c3)c3ccccc3n2)n1 [NK167]	6	0	19	0	0	0	12	6	21
